Among the data in patent US7179926B2, “Aryloxyalkylamine NK-1/SSRI inhibitors” (Bristol-Myers Squibb Company, priority 2004, dated 2007) are IC50 values, retold here.

The structures appear in SMILES notation.

A word on the IC50: it is the concentration needed to halve the response being measured.

Assay [1] addresses T1, human serotonin transporters (Homo sapiens, UniProt P31645).
T1 construct: expressed in transfected cells
The assay can be described thus: Serotonin transporter binding assay ([3H]-citalopram competition, HEK-hSERT cell membranes). The settings on record: 1 nM [3H]-citalopram, 1 hr at 25° C., read-out: SERT IC50. As to the method: Serotonin transporter binding assay. HEK-293 cells that stably express human serotonin transporters (HEK-hSERT cells) were grown at 37° C. in 5% CO2 as a monolayer in medium consisting of EMEM supplemented with 10% fetal bovine serum and G418 sulfate (500 μg/ml). To prepare membranes for radioligand binding experiments, cells were rinsed twice with phosphate-buffered saline (138 mM NaCl, 4.1 mM KCl, 5.1 mM Na2PO4, 1.5 mM KH2PO4, 11.1 mM glucose, pH 7.4). Cells were transferred from plates to polypropylene tubes (16×100 mm), centrifuged at 1,200×g for 5 min and were frozen at −80° C. until assay. Following centrifugation, pellets were resuspended by homogenization in buffer consisting of 50 mM Tris (pH 7.7 at 25° C.), 120 mM NaCl and 5 mM KCl and then centrifuged at 32,000×g for 10 min. Following centrifugation, supernatants were discarded and pellets were resuspended in buffer consisting of 50 mM Tris (pH 7.4 at 25° C.), 150 mM NaCl and 5 mM KCl. Membrane homogenates (200 μl/plate) were incubated with 1 nM [^3H]-citalopram (specific activity=85 Ci/mmol) and increasing concentrations of test compounds for 1 hr at 25° C. in a total volume of 250 μl. The assay buffer consisted of 50 mM Tris (pH 7.4 at 25° C.), 120 mM NaCl and 5 mM KCl (pH 7.4 with conc. HCl). Plates were incubated for 1 hr at 25° C., then filtered through 0.5% PEI treated Whatman GF/B filters using a Brandel cell harvester. Filters were washed three times with 3 ml of ice-cold tris wash buffer. Non-specific binding was defined with 10 μM fluoxetine. Amount of radioligand bound in the presence and absence of competitor was analyzed by plotting (−)log drug concentration versus the amount of radioligand specifically bound. The midpoint of the displacement curve (IC50, nM), signifies the potency. Ki values can be calculated using the method of Cheng and Prusoff (Cheng and Prusoff, Biochemical Pharmacology, Vol 22, pp. 3099–3108, Pergamon Press (1973)).

The target of assay [2] is T2, neurokinin-1 (NK-1) receptor (Homo sapiens, UniProt P25103).
T2 construct: endogenously expresses the neurokinin-1 (NK-1) receptor; endogenous in cells; host or cells: U373 human glioblastoma-astrocytoma cells (membranes)
T2 sequence (P25103 whole entry): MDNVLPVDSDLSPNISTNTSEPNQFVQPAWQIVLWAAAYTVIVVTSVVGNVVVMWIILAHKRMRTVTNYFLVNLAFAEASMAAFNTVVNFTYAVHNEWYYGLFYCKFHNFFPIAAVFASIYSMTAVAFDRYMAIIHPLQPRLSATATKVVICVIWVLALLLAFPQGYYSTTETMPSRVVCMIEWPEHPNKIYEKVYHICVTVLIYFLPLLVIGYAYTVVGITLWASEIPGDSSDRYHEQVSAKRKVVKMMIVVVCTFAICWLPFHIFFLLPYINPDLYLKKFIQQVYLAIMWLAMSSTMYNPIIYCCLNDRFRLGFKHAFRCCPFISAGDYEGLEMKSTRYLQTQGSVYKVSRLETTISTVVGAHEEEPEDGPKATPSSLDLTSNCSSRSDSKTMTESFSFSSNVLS
The assay can be described thus: NK-1 Binding assay ([125I] Substance P competition, U373 cell membranes). Particulars: Bolton Hunter labeled [125I] Substance P, 30 min at 20° C. As to the method:
NK-1 Binding assay. U373 cells, a human glioblastoma-astrocytoma cell line that endogenously expresses the neurokinin-1 (NK-1) receptor, were grown in a monolayer culture at 37° C. in 5% CO2 and fed with Minimum Essential Medium (MEM) supplemented with 10% fetal bovine serum. Membranes were prepared as follows: Cells were washed twice with ice-cold phosphate-buffered saline (pH 7.4) and then incubated for 5–10 minutes with ice-cold 10 mM Tris buffer (pH 7.4) containing 5 mM EDTA. Cells were removed from plates, homogenized, and centrifuged at 32,000×g for 20 minutes. The resulting supernatant was discarded, and the pellet resuspended by homogenization in 50 mM Tris buffer (pH 7.4) containing 1 mM EDTA and centrifuged at 32,000×g for 20 minutes. The resulting supernatant was discarded, and the pellet resuspended by homogenization in NK-1 binding assay buffer (50 mM Tris-HCL (pH 7.4), 3 mM MnCl2, 200 μg/ml BSA, 5 μg/ml chymostatin, 40 μg/ml bacitracin and 4 μg/ml leupeptin).
On the day of an experiment the membrane preparation was thawed, homogenized and diluted with NK-1 binding assay buffer to the appropriate concentration. Competition binding assays were performed in 96 well plate format by incubating membranes (5–10 μg/well) with Bolton Hunter labeled [^125I] Substance P, at a concentration of […], and concentrations of drugs ranging from 10000 to 0.01 nM. Samples were incubated for 30 min at 20° C. then filtered through GF/B glass fiber filters (pretreated with 1% polyethyleneimine and 0.3% Triton X-100) using a Brandel cell harvester. The filters were then washed with 10 ml ice cold 50 mM Tris-HCL (pH 7.4) containing 3 mM MgCl2. Non-specific was defined in the presence of 2 μM L-733,060 (a non-peptide NK-1 antagonist). The amount of radioligand bound in the presence and absence of competitor was analyzed by plotting (−)log drug concentration versus the amount of radioligand specifically bound. The midpoint of the displacement curve (IC50, nM), signifies the potency. Ki values can be calculated using the method of Cheng and Prusoff (Cheng and Prusoff, Biochemical Pharmacology, Vol 22, pp. 3099–3108, Pergamon Press (1973)).

T1 sequence (P31645 whole entry): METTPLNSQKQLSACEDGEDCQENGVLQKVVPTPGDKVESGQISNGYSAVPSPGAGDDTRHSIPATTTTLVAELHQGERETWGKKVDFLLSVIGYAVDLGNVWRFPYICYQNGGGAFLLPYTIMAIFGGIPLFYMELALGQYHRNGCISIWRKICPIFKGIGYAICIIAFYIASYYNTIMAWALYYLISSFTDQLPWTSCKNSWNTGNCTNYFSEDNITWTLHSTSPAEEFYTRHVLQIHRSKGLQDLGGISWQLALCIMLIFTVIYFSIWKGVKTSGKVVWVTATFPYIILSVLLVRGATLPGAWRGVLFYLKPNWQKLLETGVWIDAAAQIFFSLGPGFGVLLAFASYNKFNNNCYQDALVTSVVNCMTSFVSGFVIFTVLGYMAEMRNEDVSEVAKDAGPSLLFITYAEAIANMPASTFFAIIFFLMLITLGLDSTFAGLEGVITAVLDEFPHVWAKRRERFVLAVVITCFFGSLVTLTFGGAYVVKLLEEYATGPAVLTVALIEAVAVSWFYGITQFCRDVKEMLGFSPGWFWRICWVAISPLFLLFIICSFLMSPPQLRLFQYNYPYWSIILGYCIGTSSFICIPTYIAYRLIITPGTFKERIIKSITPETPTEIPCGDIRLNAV

For `NCCC(O)(COCc1cc(C(F)(F)F)cc(C(F)(F)F)c1)c1ccc(Cl)c(Cl)c1` (stereo not shown) [Example 10, 1-(3,5-bis(trifluoromethyl)benzyloxy)-4-amino-2-(3,4-dichlorophenyl)butan-2-ol], the figures for the IC50 in assay [1] and in assay [2] were 100 to 300 nM and 1 to 100 nM, respectively.

For `NCCC(O)(COCc1cc(F)cc(F)c1)c1ccccc1` (stereo not shown) [Example 64, 1-(3,5-difluorobenzyloxy)-4-amino-2-phenylbutan-2-ol], the IC50 fell in the range of 1 to 100 nM in assay [1] and 100 to 300 nM in assay [2].

As for `COc1ccc(C(O)(CCN)COCc2cc(C(F)(F)F)cc(C(F)(F)F)c2)cc1F` (stereo not shown) [Example 23, 1-(3,5-bis(trifluoromethyl)benzyloxy)-4-amino-2-(3-fluoro-4-methoxyphenyl)butan-2-ol], the IC50 in assay [1] and in assay [2] was 1 to 100 nM each time.

Regarding `NCCC(O)(COCc1cc(C(F)(F)F)cc(C(F)(F)F)c1)c1ccccc1` (stereo not shown) [Example 4, 1-(3,5-bis(trifluoromethyl)benzyloxy)-4-amino-2-phenylbutan-2-ol], the IC50 in assay [1] and in assay [2] was 1 to 100 nM each time.

Consider `CCc1ccc(C(O)(CCN)COCc2cc(C(F)(F)F)cc(C(F)(F)F)c2)cc1` (stereo not shown) [Example 38, 1-(3,5-bis(trifluoromethyl)benzyloxy)-4-amino-2-(4-ethylphenyl)butan-2-ol], for which the IC50 in assay [1] fell in the range of 1 to 100 nM; in assay [2] it was 100 to 300 nM.

Regarding `NCCC(O)(COCc1ccccc1Cl)c1ccccc1` (stereo not shown) [Example 50, 1-(2-chlorobenzyloxy)-4-amino-2-phenylbutan-2-ol], the IC50 in assay [1] is 1 to 100 nM; in assay [2], over 300 nM.

Take `NCCC(O)(COCc1ccccc1F)c1ccccc1` (stereo not shown) [Example 57, 1-(2-fluorobenzyloxy)-4-amino-2-phenylbutan-2-ol]: the IC50 in assay [1] and in assay [2] was over 300 nM each time.

Take `CC(CCN)(COCc1cc(C(F)(F)F)cc(C(F)(F)F)c1)c1ccccc1` (stereo not shown) [Example 74, 1-(3,5-bis(trifluoromethyl)benzyloxy)-4-amino-2-methyl-2-phenylbutane]: the IC50 in assay [1] and in assay [2] was 1 to 100 nM each time.

Take `CNCC(C)(COCc1cc(C(F)(F)F)cc(C(F)(F)F)c1)c1ccccc1` (stereo not shown) [Example 78, 1-(3,5-bis(trifluoromethyl)benzyloxy)-3-methylamino-2-methyl-2-phenylpropane]: the IC50 in assay [1] and in assay [2] was 100 to 300 nM each time.

`NCCC(O)(COCc1cc(C(F)(F)F)cc(C(F)(F)F)c1)c1ccc(F)c(F)c1` (stereo not shown) [Example 15, 1-(3,5-bis(trifluoromethyl)benzyloxy)-4-amino-2-(3,4-difluorophenyl)butan-2-ol]: the IC50 in assay [1] and in assay [2] was 1 to 100 nM in each case.

For `Cc1ccc(C(O)(CCN)COCc2cc(C(F)(F)F)cc(C(F)(F)F)c2)cc1F` (stereo not shown) [Example 33, 1-(3,5-bis(trifluoromethyl)benzyloxy)-4-amino-2-(3-fluoro-4-methylphenyl)butan-2-ol], the IC50 in assay [1] and in assay [2] was 1 to 100 nM in each case.

For the molecule `NCCC(O)(COCc1ccc(Cl)cc1)c1ccccc1` (stereo not shown) [Example 70, 1-(4-chlorobenzyloxy)-4-amino-2-phenylbutan-2-ol], the IC50 in assay [1] was 1 to 100 nM; in assay [2], over 300 nM.

In the case of `NCCC(O)(COCc1cccc(Cl)c1)c1ccccc1` (stereo not shown) [Example 65, 1-(3-chlorobenzyloxy)-4-amino-2-phenylbutan-2-ol], the IC50 in assay [1] is 1 to 100 nM; in assay [2], over 300 nM.

In the case of `COc1cccc(COCC(O)(CCN)c2ccccc2)c1` (stereo not shown) [Example 63, 1-(3-methoxybenzyloxy)-4-amino-2-phenylbutan-2-ol], the IC50 in assay [1] was 1 to 100 nM; in assay [2], over 300 nM.

Regarding `CN(C)CCC(C)(COCc1cc(C(F)(F)F)cc(C(F)(F)F)c1)c1ccccc1` (stereo not shown) [Example 76, 1-(3,5-bis(trifluoromethyl)benzyloxy)-4-dimethylamino-2-methyl-2-phenylbutane], the IC50 in assay [1] fell in the range of 1 to 100 nM; in assay [2], 100 to 300 nM.

With `NCCC(O)(CSCc1cc(C(F)(F)F)cc(C(F)(F)F)c1)c1ccccc1` (stereo not shown) [Example 80, 1-(3,5-bis(trifluoromethyl)benzylthio)-4-amino-2-phenylbutane-2-ol], the values for the IC50 in assay [1] and in assay [2] were 1 to 100 nM and 100 to 300 nM, respectively.

Turning to `Cc1ccccc1COCC(O)(CCN)c1ccccc1` (stereo not shown) [Example 67, 1-(2-methylbenzyloxy)-4-amino-2-phenylbutan-2-ol], the IC50 in assay [1] is 100 to 300 nM; in assay [2] it was over 300 nM.

As for `NCCC(O)(COCc1cc(C(F)(F)F)cc(C(F)(F)F)c1)c1cccc(F)c1` (stereo not shown) [Example 12, 1-(3,5-bis(trifluoromethyl)benzyloxy)-4-amino-2-(3-fluorophenyl)butan-2-ol], the IC50 in assay [1] and in assay [2] was 1 to 100 nM throughout.

On to `CN(C)CCC(O)(COCc1cc(C(F)(F)F)cc(C(F)(F)F)c1)c1ccccc1` (stereo not shown) [Example 5, 1-(3,5-bis(trifluoromethyl)benzyloxy)-4-(dimethylamino)-2-phenylbutan-2-ol], for which the figures for the IC50 in assay [1] and in assay [2] were over 300 nM and 1 to 100 nM, respectively.

Consider `NCCC(O)(COCc1cc(C(F)(F)F)cc(C(F)(F)F)c1)c1cc(F)cc(F)c1` (stereo not shown) [Example 19, 1-(3,5-bis(trifluoromethyl)benzyloxy)-4-amino-2-(3,5-difluorophenyl)butan-2-ol], for which the IC50 is 100 to 300 nM in assay [1] and 1 to 100 nM in assay [2].

Turning to `NCCC(O)(COCc1cc(Br)cc(Br)c1)c1ccccc1` (stereo not shown) [Example 68, 1-(3,5-dibromobenzyloxy)-4-amino-2-phenylbutan-2-ol], the IC50 in assay [1] and in assay [2] was 1 to 100 nM each time.

As to `NCCC(O)(COCc1cc(C(F)(F)F)cc(C(F)(F)F)c1)c1ccc2ccccc2c1` (stereo not shown) [Example 11, 1-(3,5-bis(trifluoromethyl)benzyloxy)-4-amino-2-(naphthalen-2-yl)butan-2-ol], the IC50 in assay [1] was 1 to 100 nM; in assay [2] it was 100 to 300 nM.

As for `CC(CN)(COCc1cc(C(F)(F)F)cc(C(F)(F)F)c1)c1ccccc1` (stereo not shown) [Example 77, 1-(3,5-bis(trifluoromethyl)benzyloxy)-3-amino-2-methyl-2-phenylpropane], the IC50 in assay [1] and in assay [2] was 100 to 300 nM throughout.

For `Cc1ccccc1C(O)(CCN)COCc1cc(C(F)(F)F)cc(C(F)(F)F)c1` (stereo not shown) [Example 43, 1-(3,5-bis(trifluoromethyl)benzyloxy)-4-amino-2-o-tolylbutan-2-ol], the IC50 in assay [1] and in assay [2] was 1 to 100 nM throughout.

Consider `NCCC(O)(COCc1cc(C(F)(F)F)cc(C(F)(F)F)c1)c1cccs1` (stereo not shown) [Example 44, 1-(3,5-bis(trifluoromethyl)benzyloxy)-4-amino-2-(thiophen-2-yl)butan-2-ol], for which the IC50 in assay [1] and in assay [2] was 1 to 100 nM each time.

With `Cc1ccc(C(O)(CCN)COCc2cc(C(F)(F)F)cc(C(F)(F)F)c2)cc1` (stereo not shown) [Example 9, 1-(3,5-bis(trifluoromethyl)benzyloxy)-4-amino-2-p-tolylbutan-2-ol], the IC50 in assay [1] and in assay [2] was 1 to 100 nM in each case.
